Test results taken from paper PMC9002265, “A New Series of Strigolactone Analogs Derived From Cinnamic Acids as Germination Inducers for Root Parasitic Plants” (Frontiers in Plant Science, 2022).

How the values were obtained:
AtD14 = target: T1, AtD14 (Arabidopsis thaliana, UniProt Q9SQR3); assay: Hydrolysis assay with recombinant AtD14; format: biochemical; conditions: 10 μM substrate, 30°C, 60 min
T1 construct: The cDNA of AtD14 was introduced into pMALHis vector; MBP; His6; made in house; host or cells: E. coli BL21 (DE3)
T1 sequence (Q9SQR3 1-267): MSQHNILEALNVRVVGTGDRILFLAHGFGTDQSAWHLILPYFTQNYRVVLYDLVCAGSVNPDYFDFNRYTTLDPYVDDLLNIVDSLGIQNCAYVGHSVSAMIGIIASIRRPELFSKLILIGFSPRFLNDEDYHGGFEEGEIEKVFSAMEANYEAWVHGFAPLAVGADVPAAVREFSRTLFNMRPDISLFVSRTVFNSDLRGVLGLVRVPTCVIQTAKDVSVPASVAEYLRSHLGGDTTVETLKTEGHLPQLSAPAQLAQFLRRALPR
Procedure: The cDNA of AtD14 was introduced into pMALHis vector that has both MBP-tag and His6-tag. The vector was transformed in to E. coli BL21 (DE3) and the cell was precultured in LB medium containing 50 μg/ml ampicillin. Overnight cultures (10 ml) were added to fresh LB medium (1 L) containing 50 μg/ml ampicillin and it was cultured at 37°C. After OD600 reached to 0.8, the cultures were cooled at 16°C for 1 h, and then 0.1 mM IPTG was added. The culture was further incubated at 16°C for 20 h. The culture medium was centrifuged at 3,700 g and the pellet was stored at −20°C until use. The pellet was resuspended and sonicated in lysis buffer (50 mM Tris buffer (pH 8.0) containing 500 mM NaCl, 10 mM 2-mercaptoethanol, and 10% glycerol). The supernatant was purified by Ni Sepharose TM 6 Fast Flow (500 μl, Cytiva) After washing with the washing buffer (50 mM Tris buffer (pH 8.0) containing 500 mM NaCl and 20 mM imidazole), The bound protein was eluted with elution buffer (50 mM Tris buffer (pH 8.0) containing 500 mM NaCl and 200 mM imidazole). The eluate was concentrated using VIVASPIN Turbo 15 (Sartorius), and the concentration was adjusted to 5 mg/ml. The purified protein was aliquoted to the appropriate volume, immediately frozen in liquid nitrogen, and stored at −80°C until use.
(§1) Hydrolysis assays were carried out at 30°C for 60 min in 100 μl of a reaction buffer containing 0.13 pmol recombinant ShHTL7 or AtD14, 10 μM of substrate in 50 mM Phosphate-Na buffer (pH 7.0) containing 2% acetone. The enzyme reaction was stopped by addition of 100 μl of acetonitrile containing 1-naphtaleneacetic acid (NAA; 0.5 ng/μl) as an internal standard. After centrifuged at 13,000 rpm for 5 min, each sample was subjected to LC–MS/MS analysis equipped with reverse-phase column (CORTECS UPLC Phenyl 1.6 μm, ϕ2.1 × 75 mm; Waters). The concentration of remaining substrate and reaction product was calculated by using NAA as an internal standard. Detailed information about the analytical condition is described in Supplementary Table 1.

Orobanche minor seeds = assay: Germination assay, Orobanche minor seeds; format: in vivo; conditions: O. minor seeds
Procedure: Orobanche minor seeds were washed with 70% EtOH, and then sonicated for 4 min in 1% sodium hypochlorite solution containing 0.2% Tween-20. The seeds were then washed 10 times with sterile water and suspended in 0.1% agar solution. The seeds were loaded onto 5-mm glass fiber filter disks (20–70 seeds/disk) and were conditioned at 23°C for 15 days. Each disk was transferred into a 96-well plate. A 30 μl aliquot of test chemical solution was added to the well. For the germination assay, the chemical solutions were prepared by 1,000 times dilution from each acetone stock solution with water (final acetone concentration was 0.1%). GR24 solution (0.1% acetone) and sterile water (0.1% acetone) was used as positive and negative control, respectively. The 96 well plates were incubated for 5 days at 23°C and the number of total seeds and germinated seeds was counted.

ShHTL7 = target: T2, ShHTL7 (Striga hermonthica, UniProt A0A0M3PNA2); assay: Hydrolysis assay with recombinant ShHTL7; format: biochemical; conditions: 10 μM substrate, 30°C, 60 min
T2 sequence (A0A0M3PNA2 1-271): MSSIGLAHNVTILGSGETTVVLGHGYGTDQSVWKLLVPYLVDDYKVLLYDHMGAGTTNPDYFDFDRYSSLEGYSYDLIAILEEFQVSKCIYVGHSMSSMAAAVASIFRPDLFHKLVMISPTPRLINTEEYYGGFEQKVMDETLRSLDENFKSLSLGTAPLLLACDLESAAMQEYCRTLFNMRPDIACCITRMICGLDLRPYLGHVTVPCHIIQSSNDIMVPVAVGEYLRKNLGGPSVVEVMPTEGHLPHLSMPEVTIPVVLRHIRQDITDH
Procedure: The ORF fragment of ShHTL6 and ShHTL7 was synthesized using IDT gBlock service. The PCR amplified ShHTL6 and ShHTL7 fragment was digested with Nco I and EcoR I, and the digested product was introduced into a modified pET28 vector with an N-terminal His8 tag. Escherichia coli BL21(DE3) was used for protein expression. The overnight culture (12 ml) was added to a fresh LB medium (1.2 L) containing kanamycin (50 mg/L) at 37°C. After OD600 reached 0.8, 0.1 mM IPTG was added and the cell was further incubated at 16°C for 21 h. The culture medium was centrifuged at 3700 g and the pellet was stored at −20°C until use. The pellet was resuspended and sonicated in a lysis buffer (50 mM Tris buffer (pH 8.0) containing 500 mM NaCl, 10 mM 2-mercaptoethanol, and 10% glycerol). The supernatant was purified by Ni Sepharose TM 6 Fast Flow (500 μl, Cytiva). After washing with the washing buffer (50 mM Tris buffer (pH 8.0) containing 500 mM NaCl and 20 mM imidazole), The bound protein was eluted with elution buffer (50 mM Tris buffer (pH 8.0) containing 500 mM NaCl and 200 mM imidazole). The eluate was concentrated using VIVASPIN Turbo 15 (Sartorius), and the concentration was adjusted to 5 mg/ml. The purified protein was aliquoted to the appropriate volume, immediately frozen in liquid nitrogen, and stored at −80°C until use.
as §1

[1] = Time course monitoring of degradation in hydroponic culture; format: physicochemical; conditions: 1 μM, within 1 week, pH 5.7, LC-MS/MS
Procedure: t-CASL1, c-CASL1, PPASL, and GR5 were separately added to 15 ml tubes containing hydroponic culture. The final concentration of the test compounds is 1 μM and acetone was adjusted to 0.01% (v/v). These solutions were incubated under the same conditions as branching assay. After incubation for 0, 5, 24 72, or 168 h, 495 μl of hydroponic culture containing test compounds was collected and 5 μl of NAA solution (10 μM) was added as an internal standard. The solution was extracted with ethyl acetate. The ethyl acetate phase was dried up under the nitrogen gas and dissolved in acetonitrile. These samples were subjected to LC–MS/MS analysis equipped with reverse-phase column (CORTECS UPLC Phenyl 1.6 μm, ϕ2.1 × 75 mm; Waters). Each peak area of test chemicals and internal standard was calculated, and the remaining percentage of teste chemicals was calculated. At the same time, the degradation products of test compounds (CA or PPA) were also analyzed. Detailed information about the analytical condition was described in Supplementary Table 1.

CC1=CC(OC(=O)/C=C\c2ccccc2)OC1=O (stereo not shown) [c-CASL1]
hydrolysis by AtD14 (AtD14): can hydrolyze | germination-inducing activity, times stronger than the corresponding trans isomer (Orobanche minor seeds): approximately 10 times | hydrolysis by HTL7 (ShHTL7): can hydrolyze | loss (non-enzymatic degradation) in hydroponic culture medium [1]: ~40%
